Experimental data: patent US10821115B2, “Compounds that inhibit Mcl-1 protein” (priority 2017, dated 2020)
pIC50: −log10 of the molar value. Read-outs that look alike come from different tables or passages of the source.

Tests used:
[1] = system: human multiple myeloma cell line, OPM-2; experiment: Cell viability assay (OPM-2 10 FBS), CellTiter-Glo; format: cell-based
How it was run: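 IC50 values come from 4-parameter logistic fits of luminescence signals reflecting cell viability. Treatment lasted 16 h at 37 °C in complete medium with 10% FBS, starting from 3000 cells/well.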

[2] = biological target: recombinant human Mcl-1 (residues 171-327) / Bim interaction (Homo sapiens (Human), UniProt Q07820); experiment: biochemical; format: binding; conditions: read-out: Mcl-1 HTRF IC50
recombinant human Mcl-1 (residues 171-327) / Bim interaction, sequence (Q07820 171-327): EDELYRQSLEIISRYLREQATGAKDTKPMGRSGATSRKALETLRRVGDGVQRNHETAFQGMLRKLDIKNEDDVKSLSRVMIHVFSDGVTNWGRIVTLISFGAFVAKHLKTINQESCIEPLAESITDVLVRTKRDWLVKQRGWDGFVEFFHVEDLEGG

[3] = Homo sapiens, OPM-2, 16 h, read-out: OPM-2 10% FBS IC50 IP, OPM-2 cells, 10% FBS, 16 h, CellTiter-Glo
[4] = TR-FRET, Mcl-1(171-327) / biotin-Bim (51-76)
[5] = Homo sapiens, OPM-2, 16 h, read-out: OPM-2 10% FBS IC50 IP, OPM-2 cells, 10% FBS, 16 h incubation
[6] = 0.1 nM Mcl-1(171-327), 0.05 nM biotin-Bim (51-76)

CO[C@@]1(Cc2nc(C)co2)/C=C/C[C@H](C)[C@@H](C)S(=O)(=O)NC(=O)c2ccc3c(c2)N(C[C@@H]2CC[C@H]21)C[C@@]1(CCCc2cc(Cl)ccc21)CO3 [Example 100527, (1S,3′R,6′R,7′S,8′E,11′S,12′R)-6-chloro-7′-methoxy-11′,12′-dimethyl-7′-((4-methyl-1,3-oxazol-2-yl)methyl)-3,4-dihydro-2H,15′H-spiro[naphthalene-1,22′-[20]oxa[13]thia[1,14]diazatetracyclo [14.7.2.0~3,6~.0~19,24~]pentacosa[8,16,18,24]tetraen]-15′-one 13′,13′-dioxide]
pIC50 [1, 3]: 5.45
pIC50 [2, 4]: 8.44

CO[C@@]1(CN2CC(C)(N(C)C)C2)/C=C/C[C@H](C)[C@@H](C)S(=O)(=O)NC(=O)c2ccc3c(c2)N(C[C@@H]2CC[C@H]21)C[C@@]1(CCCc2cc(Cl)ccc21)CO3 [Example 59, (1S,3′R,6′R,7′S,8′E,11′S,12′R)-6-chloro-7′-((3-(dimethylamino)-3-methyl-1-azetidinyl)methyl)-7′-methoxy-11′,12′-dimethyl-3,4-dihydro-2H,15′H-spiro[naphthalene-1,22′-[20]oxa[13]thia[1,14]diazatetracyclo [14.7.2.0~3,6~.0~19,24~]pentacosa[8,16,18,24]tetraen]-15′-one 13′,13′-dioxide]
pIC50 [1, 5]: 7.32
pIC50 [2, 6]: 9.94

C[C@@H]1[C@@H](C)C/C=C/[C@](C)(OCCN2CCOCC2)[C@@H]2CC[C@H]2CN2C[C@@]3(CCCc4cc(Cl)ccc43)COc3ccc(cc32)C(=O)NS1(=O)=O [Example 100007, (1 S,3′R,6′R,7′S,8′E,11′S, 12′R)-6-chloro-7′,11′,12′-trimethyl-7′-(2-(4-morpholinyl)ethoxy)-3,4-dihydro-2H, 15′H-spiro[naphthalene-1,22′-[20]oxa[13]thia[1,14]diazatetracyclo[14.7.2.0-3,6˜.0˜19,24˜]pentacosa[8,16,18,24]tetraen]-15′-one 13′,13′-dioxide]
pIC50 [1, 3]: 6.85
pIC50 [2, 4]: 9.44

CO[C@@]1(CN2CCN(C3CCC3)CC2)/C=C/C[C@H](C)[C@@H](C)S(=O)(=O)NC(=O)c2ccc3c(c2)N(C[C@@H]2CC[C@H]21)C[C@@]1(CCCc2cc(Cl)ccc21)CO3 [Example 281, (1S,3′R,6′R,7′S,8′E,11′S,12′R)-6-chloro-7′-((4-cyclobutyl-1-piperazinyl)methyl)-7′-methoxy-11′,12′-dimethyl-3,4-dihydro-2H,15′H-spiro[naphthalene-1,22′-[20]oxa[13]thia[1,14]diazatetracyclo [14.7.2.0~3,6~.0~19,24~]pentacosa[8,16,18,24]tetraen]-15′-one 13′,13′-dioxide]
pIC50 [1, 5]: 6.82
pIC50 [2, 6]: 9.74

CO[C@@]1(CN2CCC23COC3)/C=C/C[C@H](C)[C@@H](C)S(=O)(=O)NC(=O)c2ccc3c(c2)N(C[C@@H]2CC[C@H]21)C[C@@]1(CCCc2cc(Cl)ccc21)CO3 [Example 208, (1S,3′R,6′R,7′S,8′E,11′S,12′R)-6-chloro-7′-methoxy-11′,12′-dimethyl-7′-(6-oxa-1-azaspiro[3.3]hept-1-ylmethyl)-3,4-dihydro-2H,15′H-spiro[naphthalene-1,22′-[20]oxa[13]thia[1,14]diazatetracyclo [14.7.2.0~3,6~.0~19,24~]pentacosa[8,16,18,24]tetraen]-15′-one 13′,13′-dioxide]
pIC50 [1, 5]: 6.43
pIC50 [2, 6]: 10.00

CO[C@]1(CN2CCN3C(=O)OC[C@@H]3C2)/C=C/C[C@H](C)[C@@H](C)S(=O)(=O)NC(=O)c2ccc3c(c2)N(C[C@@H]2CC[C@H]21)C[C@@]1(CCCc2cc(Cl)ccc21)CO3 [Example 64, (1S,3′R,6′R,7′R,8′E,11′S,12′R)-6-chloro-7′-methoxy-11′,12′-dimethyl-7′-(((8aS)-3-oxotetrahydro[1,3]oxazolo[3,4-a]pyrazin-7(1H)-yl)methyl)-3,4-dihydro-2H,15′H-spiro[naphthalene-1,22′-[20]oxa[13]thia[1,14]diazatetracyclo [14.7.2.0~3,6~.0~19,24~]pentacosa[8,16,18,24]tetraen]-15′-one 13′,13′-dioxide]
pIC50 [1, 5]: 6.70
pIC50 [2, 6]: 9.90

CO[C@]1(CN2CCOCC2)/C=C/C[C@H](C)[C@@H](C)S(=O)(=O)NC(=O)c2ccc3c(c2)N(C[C@@H]2CC[C@H]21)C[C@@]1(CCCc2cc(Cl)ccc21)CO3 [Example 53, (1S,3′R,6′R,7′R,8′E,11′S,12′R)-6-chloro-7′-methoxy-11′,12′-dimethyl-7′-(4-morpholinylmethyl)-3,4-dihydro-2H,15′H-spiro[naphthalene-1,22′-[20]oxa[13]thia[1,14]diazatetracyclo [14.7.2.0~3,6~.0~19,24~]pentacosa[8,16,18,24]tetraen]-15′-one 13′,13′-dioxide]
pIC50 [1, 5]: 6.54
pIC50 [2, 6]: 9.47

COCCN(C)C1CN(C[C@]2(OC)/C=C/C[C@H](C)[C@@H](C)S(=O)(=O)NC(=O)c3ccc4c(c3)N(C[C@@H]3CC[C@H]32)C[C@@]2(CCCc3cc(Cl)ccc32)CO4)C1 [Example 260, (1S,3′R,6′R,7′S,8′E,11′S,12′R)-6-chloro-7′-methoxy-7′-((3-((2-methoxyethyl)(methyl)amino)-1-azetidinyl)methyl)-11′,12′-dimethyl-3,4-dihydro-2H,15′H-spiro[naphthalene-1,22′-[20]oxa[13]thia[1,14]diazatetracyclo [14.7.2.0~3,6~.0~19,24~]pentacosa[8,16,18,24]tetraen]-15′-one 13′,13′-dioxide]
pIC50 [1, 5]: 6.99
pIC50 [2, 6]: 10.08

CO[C@@]1(CCOS(C)(=O)=O)/C=C/C[C@H](C)[C@@H](C)S(=O)(=O)NC(=O)c2ccc3c(c2)N(C[C@@H]2CC[C@H]21)C[C@@]1(CCCc2cc(Cl)ccc21)CO3 [Example 100364, 2-((1S,3′R,6′R,7′S,8′E,11′S,12′R)-6-chloro-7′-methoxy-11′,12′-dimethyl-13′,13′-dioxido-15′-oxo-3,4-dihydro-2H-spiro[naphthalene-1,22′-[20]oxa[13]thia[1,14]diazatetracyclo [14.7.2.0~3,6~.0~19,24~]pentacosa[8,16,18,24]tetraen]-7′-yl)ethyl methanesulfonate]
pIC50 [1, 3]: 5.77
pIC50 [2, 4]: 8.94

CO[C@]1(C)/C=C/C[C@H](C)[C@@H](C)S(=O)(=O)NC(=O)c2ccc3c(c2)N(C[C@@H]2CC[C@H]21)C[C@@]1(CCCc2cc(Cl)ccc21)CO3 [Example 100215, (1S,3′R,6′R,7′R,8′E,11′S,12′R)-6-chloro-7′-methoxy-7′,11′,12′-trimethyl-3,4-dihydro-2H,15′H-spiro[naphthalene-1,22′-[20]oxa[13]thia[1,14]diazatetracyclo [14.7.2.0~3,6~.0~19,24~]pentacosa[8,16,18,24]tetraen]-15′-one 13′,13′-dioxide]
pIC50 [1, 3]: 5.90
pIC50 [2]: 9.23

CO[C@@]1(Cc2ncc(C)o2)/C=C/C[C@H](C)[C@@H](C)S(=O)(=O)NC(=O)c2ccc3c(c2)N(C[C@@H]2CC[C@H]21)C[C@@]1(CCCc2cc(Cl)ccc21)CO3 [Example 100529, (1S,3′R,6′R,7′S,8′E,11′S,12′R)-6-chloro-7′-methoxy-11′,12′-dimethyl-7′-((5-methyl-1,3-oxazol-2-yl)methyl)-3,4-dihydro-2H,15′H-spiro[naphthalene-1,22′-[20]oxa[13]thia[1,14]diazatetracyclo [14.7.2.0~3,6~.0~19,24~]pentacosa[8,16,18,24]tetraen]-15′-one 13′,13′-dioxide]
pIC50 [1, 3]: 6.61
pIC50 [2, 4]: 9.54

CO[C@]1(CC2=NC(C)(C)CO2)/C=C/C[C@H](C)[C@@H](C)S(=O)(=O)NC(=O)c2ccc3c(c2)N(C[C@@H]2CC[C@H]21)C[C@@]1(CCCc2cc(Cl)ccc21)CO3 [Example 100380, (1S,3′R,6′R,7′R,8′E,11′S,12′R)-6-chloro-7′-((4,4-dimethyl-4,5-dihydro-1,3-oxazol-2-yl)methyl)-7′-methoxy-11′,12′-dimethyl-3,4-dihydro-2H,15′H-spiro[naphthalene-1,22′-[20]oxa[13]thia[1,14]diazatetracyclo [14.7.2.0~3,6~.0~19,24~]pentacosa[8,16,18,24]tetraen]-15′-one 13′,13′-dioxide]
pIC50 [1, 3]: 6.86
pIC50 [2, 4]: 9.68

CO[C@@]1(CC2=N[C@H](C)C(=O)O2)/C=C/C[C@H](C)[C@@H](C)S(=O)(=O)NC(=O)c2ccc3c(c2)N(C[C@@H]2CC[C@H]21)C[C@@]1(CCCc2cc(Cl)ccc21)CO3 (stereo in doubt) [Example 100531]
pIC50 [1, 3]: 6.76
pIC50 [2, 4]: 10.08

COCCN(C)S(=O)(=O)C[C@]1(O)CCC[C@H](C)[C@@H](C)S(=O)(=O)NC(=O)c2ccc3c(c2)N(C[C@@H]2CC[C@H]21)C[C@@]1(CCCc2cc(Cl)ccc21)CO3 [Example 100165, 1-((1S,3′R,6′R,7′S,11′S,12′R)-6-chloro-7′-hydroxy-11′,12′-dimethyl-13′,13′-dioxido-15′-oxo-3,4-dihydro-2H-spiro[naphthalene-1,22′-[20]oxa[13]thia[1,14]diazatetracyclo [14.7.2.0~3,6~.0~19,24~]pentacosa[16,18,24]trien]-7′-yl)-N-(2-methoxyethyl)-N-methylmethanesulfonamide]
pIC50 [1, 3]: 6.24
pIC50 [2, 4]: 9.34

C=CC[C@]1(O)CCC[C@H](C)[C@@H](C)S(=O)(=O)NC(=O)c2ccc3c(c2)N(C[C@@H]2CC[C@H]21)C[C@@]1(CCCc2cc(Cl)ccc21)CO3 (single isomer, unassigned) [Example 100273]
pIC50 ([1]; read-out: OPM-2 10% FBS IC50 IP, OPM-2 cells, 10% FBS, 16 h, CellTiter-Glo): 5.06
pIC50 [2, 4]: 8.25

C[C@@H]1[C@@H](C)CCCC2(CN(S(C)(=O)=O)CCO2)[C@@H]2CC[C@H]2CN2C[C@@]3(CCCc4cc(Cl)ccc43)COc3ccc(cc32)C(=O)NS1(=O)=O (some centres unmarked) [Example 466]
pIC50 ([1]; read-out: OPM-2 10% FBS IC50 IP, OPM-2 cells, 10% FBS, 16 h incubation): 6.35
pIC50 [2, 6]: 9.05
